{"source": "paper PMC6136660", "about": "(Steroids, 2018)", "key": {"[1]": {"target": "T1, mineralocorticoid receptor (Homo sapiens, UniProt P08235)", "T1 sequence (P08235 1-984)": "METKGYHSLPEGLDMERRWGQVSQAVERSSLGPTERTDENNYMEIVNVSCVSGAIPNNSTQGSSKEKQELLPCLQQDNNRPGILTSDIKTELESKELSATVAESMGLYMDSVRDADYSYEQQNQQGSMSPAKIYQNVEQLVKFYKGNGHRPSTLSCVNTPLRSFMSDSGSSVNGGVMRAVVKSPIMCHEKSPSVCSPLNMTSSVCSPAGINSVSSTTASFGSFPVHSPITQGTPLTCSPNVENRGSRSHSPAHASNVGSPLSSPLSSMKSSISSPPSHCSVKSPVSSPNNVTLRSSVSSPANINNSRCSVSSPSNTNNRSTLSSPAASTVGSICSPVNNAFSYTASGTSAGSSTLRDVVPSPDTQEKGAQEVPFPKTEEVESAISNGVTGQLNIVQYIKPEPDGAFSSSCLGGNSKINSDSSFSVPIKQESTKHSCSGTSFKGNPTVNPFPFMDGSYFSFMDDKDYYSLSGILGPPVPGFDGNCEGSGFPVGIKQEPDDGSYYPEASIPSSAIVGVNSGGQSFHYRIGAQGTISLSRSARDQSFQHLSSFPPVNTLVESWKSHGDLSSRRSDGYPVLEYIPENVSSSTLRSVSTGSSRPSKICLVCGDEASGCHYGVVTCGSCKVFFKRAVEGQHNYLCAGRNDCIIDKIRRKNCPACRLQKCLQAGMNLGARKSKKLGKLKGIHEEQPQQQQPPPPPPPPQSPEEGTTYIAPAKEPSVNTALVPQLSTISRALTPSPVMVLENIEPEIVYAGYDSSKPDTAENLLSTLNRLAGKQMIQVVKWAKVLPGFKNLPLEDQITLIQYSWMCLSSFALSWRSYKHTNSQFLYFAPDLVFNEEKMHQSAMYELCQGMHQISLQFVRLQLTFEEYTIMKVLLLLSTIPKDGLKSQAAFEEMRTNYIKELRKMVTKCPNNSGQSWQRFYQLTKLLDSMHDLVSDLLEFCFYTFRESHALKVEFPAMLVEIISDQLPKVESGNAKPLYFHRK", "experiment": "In vitro reporter assays for steroid hormone receptors, agonist and antagonist modes", "format": "cell-based", "conditions": "in vitro reporter assays (unpublished observations)", "description": "In addition to the dissociation of […] (lost) and transrepression (retained) activities, vamorolone has changed additional sub-activities of traditional glucocorticoids. Cortisol and pharmacological glucocorticoids show high affinity for the mineralocorticoid receptor, similar to its physiological ligand, aldosterone. Glucocorticoids and aldosterone act as agonists for the mineralocorticoid receptor, and high circulating levels of pharmacological glucocorticoids result in salt imbalance and water weight gain (Cushingoid appearance) via the reninangiotensin system. […] Vamorolone can not be metabolized by 11β-Hydroxysteroid dehydrogenase (11BHSD) isoforms, and thus should show greater stability in aldosterone-responsive cells (e.g. not inactivated as cortisol and glucocorticoids are)."}, "growth and bone": {"system": "growth and bone", "parameters": "method as in PMID 24014378", "conditions": "30 mg/kg/day, pre-clinical models; cited from earlier work"}, "[2]": {"experiment": "Clinical safety (treatment-emergent adverse events, MTD, NOAEL), MAD", "format": "in vivo", "description": "The MAD part of the study was initiated after a review of safety and PK data from SAD cohorts 1 to 6. In the MAD part, 4 cohorts containing 8 subjects each were randomized to receive vamorolone or placebo, in a 3:1 ratio, once daily (QD) for 14 days. The duration of dosing in the MAD part was determined based on the PK data from the SAD part. In each cohort, 3 sentinel subjects were administered vamorolone or placebo, in a 2:1 ratio.\nAfter completion of all scheduled safety follow-up visits for a given cohort, the SRC reviewed all available PK and safety data (AEs, physical examination findings, ECGs, vital signs, and clinical laboratory tests) in a blinded manner for the completed cohort prior to making a decision to escalate to the next higher dose level.\nDose escalation in the MAD part was to proceed according to protocol until the MTD was identified. The dose escalation stopping criteria, as listed above in the SAD section, comprised the halting rules for the MAD part. If any of these criteria were met during the 14-day dosing duration in the MAD part, dosing in that cohort was to be halted and no further dose escalation was to occur. If AEs/SAEs occurred more frequently in subjects treated with vamorolone compared to subjects treated with placebo, the SRC was to determine if dose escalation could continue. If dose escalation was terminated, the remaining cohorts could be enrolled to evaluate the safety and PK effects of vamorolone for dose levels between the previously tolerated dose and the dose level at which dose escalation was terminated. Once safety data from additional cohort(s) was assessed, the MTD was defined as the dose level below the dose at which the SRC determined there was an unacceptable risk to subjects."}}}
{"smiles": "C[C@@H]1C[C@H]2[C@@H]3CCC4=CC(=O)C=C[C@]4(C)C3=CC[C@]2(C)[C@@]1(O)C(=O)CO", "note": "[vamorolone]", "values": [{"measurement": "activity at the mineralocorticoid receptor", "setting": "[1]", "value": "potent antagonist"}, {"measurement": "severe stunting of growth and osteopenia", "setting": "growth and bone", "value": "did not"}, {"measurement": "subjects experiencing TEAEs", "setting": "[2]; MAD 1.0 mg/kg", "value": 2, "unit": "subjects"}, {"measurement": "subjects experiencing TEAEs", "setting": "[2]; MAD 3.0 mg/kg", "value": "none"}, {"measurement": "subjects experiencing TEAEs", "setting": "[2]; MAD 9.0 mg/kg", "value": "none"}, {"measurement": "subjects experiencing TEAEs", "setting": "[2]; MAD 20 mg/kg", "value": 2, "unit": "subjects"}, {"measurement": "maximum tolerated dose (MTD)", "setting": "[2]; MAD up to 20 mg/kg/day", "value": "not reached"}, {"measurement": "severe adverse events", "setting": "[2]; any SAD or MAD dose group", "value": "no severe adverse events"}, {"measurement": "NOAEL at 14 days", "setting": "[2]; human, in vivo, oral, highest dose tested, 14 days", "value": 20, "unit": "mg/kg/day"}, {"measurement": "liver finding thought to be drug related", "setting": "[2]; one subject, 20 mg/kg/day MAD cohort, dosing halted", "value": "mild elevations of liver enzymes"}]}
